Measured values reported in patent publication US20110224208A1, “NOVEL INHIBITORS OF FLAVIVIRUS REPLICATION” (KATHOLIEKE UNIVERSITEIT LEUVEN, K.U. LEUVEN R&D, priority 2008, published 2011).
Converted amounts (≈) assume the structure as drawn.

How the values were obtained:
[1] = test system: HCV replicon I389luc-ubi-neo/NS3-3'/5.1; experiment: Anti-HCV replicon assay (luciferase activity) in Huh-5-2 cells; assay type: cell-based, Hepatitis C virus; conditions: concentration required to inhibit luciferase activity in the replicon system by 50%
In short: (§1)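 Huh-5-2 cells carrying the luciferase HCV replicon, seeded 24 h, then exposed to serial compound dilutions without G418 for 72 h at 37° C, 5% CO2. Replication read as luciferase luminescence, expressed as percentage of untreated cultures; culture density measured in parallel by MTS.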

[2] = Proliferation of exponentially growing Huh-5-2 cells (MTS method); conditions: human, CC50, concentration required to inhibit the proliferation of exponentially growing Huh-5-2 cells by 50%; Table 2
In short: as §1

[3] = Hepatitis C virus, Huh-5-2, 72 h

SMILES	IC50 [1, 3] [µg/mL]	CC50 at 72 h [2] [µg/mL]	IC50 ([1]; 72 hours) [µg/mL]
COCCN1C(=O)c2ccccc2C(C(=O)Nc2ccc(Cn3ccnc3)cc2)C1c1cccs1 (stereo not drawn) [C215, N-(4-((1H-imidazol-1-yl)methyl)phenyl)-2-(2-methoxyethyl)-1-oxo-3-(thiophen-2-yl)-1,2,3,4-tetrahydroisoquinoline-4-carboxamide]	1.04 (≈ 2.14 µM)	52.9 (≈ 109 µM)	–
COCCN1C(=O)c2ccccc2C(C(=O)Nc2ccc3ncoc3c2)C1c1cccs1 (stereo not drawn) [C219, N-(benzo[d]oxazol-6-yl)-2-(2-methoxyethyl)-1-oxo-3-(thiophen-2-yl)-1,2,3,4-tetrahydroisoquinoline-4-carboxamide]	1.14 (≈ 2.55 µM)	91.1 (≈ 204 µM)	–
COCCN1C(=O)c2ccccc2C(C(=O)N(C)c2cccc(OC)c2)C1c1cccs1 (stereo not drawn) [C151, 2-(2-methoxyethyl)-N-(3-methoxyphenyl)-N-methyl-1-oxo-3-(thiophen-2-yl)-1,2,3,4-tetrahydroisoquinoline-4-carboxamide]	22.8 (≈ 50.7 µM)	52 (≈ 115 µM)	–
COCCN1C(=O)c2ccccc2C(C(=O)Nc2cccc(OC)c2)C1CC1CCOCC1 (stereo not drawn) [C97, 2-(2-methoxyethyl)-N-(3-methoxyphenyl)-1-oxo-3-((tetrahydro-2H-pyran-4-yl)methyl)-1,2,3,4-tetrahydroisoquinoline-4-carboxamide]	51.6 (≈ 114 µM)	80 (≈ 177 µM)	–
COc1cccc(NC(=O)C2c3ccccc3C(=O)N(CCOC(C)C)C2c2cccs2)c1 (stereo not drawn) [C66, 2-(2-Isopropoxyethyl)-N-(3-methoxyphenyl)-1-oxo-3-(thiophen-2-yl)-1,2,3,4-tetrahydroisoquinoline-4-carboxamide]	1.99 (≈ 4.28 µM)	39.2 (≈ 84.4 µM)	–
COCCN1C(=O)c2ccccc2C(C(=O)Nc2ccc3c(c2)OCCO3)C1c1cccs1 (stereo not drawn) [C117, N-(2,3-dihydrobenzo[b][1,4]dioxin-6-yl)-2-(2-methoxyethyl)-1-oxo-3-(thiophen-2-yl)-1,2,3,4-tetrahydroisoquinoline-4-carboxamide]	0.36 (≈ 0.775 µM)	81.9 (≈ 176 µM)	–
COc1cccc(NC(=O)C2c3ccccc3C(=O)N(CCO)C2c2cccs2)c1 (stereo not drawn) [C23, 2-(2-Hydroxyethyl)-N-(3-methoxyphenyl)-1-oxo-3-(thiophen-2-yl)-1,2,3,4-tetrahydroisoquinoline-4-carboxamide]	43 (≈ 102 µM)	118 (≈ 280 µM)	–
COCCN1C(=O)c2ccccc2C(C(=O)Nc2ccc3scnc3c2)C1c1cccs1 (stereo not drawn) [C81, N-(benzo[d]thiazol-5-yl)-2-(2-methoxyethyl)-1-oxo-3-(thiophen-2-yl)-1,2,3,4-tetrahydroisoquinoline-4-carboxamide]	–	65 (≈ 140 µM)	0.16 (≈ 0.345 µM)
COCCN1C(=O)c2ccccc2C(C(=O)n2c(=O)oc3ccc(N)cc32)C1c1cccs1 (stereo not drawn) [C207, 5-amino-3-(−2-(2-methoxyethyl)-1-oxo-3-(thiophen-2-yl)-1,2,3,4-tetrahydroisoquinoline-4-carbonyl)benzo[d]oxazol-2(3H)-one]	27.4 (≈ 59.2 µM)	72.3 (≈ 156 µM)	–
COCCN1C(=O)c2ccccc2C(C(=O)Nc2cnccn2)C1c1cccs1 (stereo not drawn) [C163, 2-(2-methoxyethyl)-1-oxo-N-(pyrazin-2-yl)-3-(thiophen-2-yl)-1,2,3,4-tetrahydroisoquinoline-4-carboxamide]	5.23 (≈ 12.8 µM)	81 (≈ 198 µM)	–
COCCN1C(=O)c2ccccc2C(C(=O)Nc2cc(-c3ccccc3)nn2C)C1c1cccs1 (stereo not drawn) [C208, 2-(2-methoxyethyl)-N-(1-methyl-3-phenyl-1H-pyrazol-5-yl)-1-oxo-3-(thiophen-2-yl)-1,2,3,4-tetrahydroisoquinoline-4-carboxamide]	0.39 (≈ 0.801 µM)	7.94 (≈ 16.3 µM)	–
COCCN1C(=O)c2ccccc2C(C(=O)Nc2cccc(N3CCCC3)c2)C1c1cccs1 (stereo not drawn) [C122, 2-(2-methoxyethyl)-1-oxo-N-(3-(pyrrolidin-1-yl)phenyl)-3-(thiophen-2-yl)-1,2,3,4-tetrahydroisoquinoline-4-carboxamide]	0.37 (≈ 0.778 µM)	81.3 (≈ 171 µM)	–
